In ChEMBL document CHEMBL4028802, “DILIrank: the largest reference drug list ranked by the risk for developing drug-induced liver injury in humans” (Drug Discov Today, 2016):
Non-standard residues stand in square brackets, D forms with d. Residues, ends and D or L forms follow the SMILES beside them. dPhe(4-Cl) = N[C@H](Cc1ccc(Cl)cc1)C(=O)O; d2Nal = N[C@H](Cc1ccc2ccccc2c1)C(=O)O; dCit = NC(=O)NCCC[C@@H](N)C(=O)O; d3Pal = N[C@H](Cc1cccnc1)C(=O)O

Experiments:
Homo sapiens [1] = species: Homo sapiens; assay: Liver toxicity in human assessed as induction of drug-induced liver injury by measuring severity class index
Homo sapiens [2] = species: Homo sapiens; assay: Liver toxicity in human assessed as induction of drug-induced liver injury by measuring verified drug-induced liver injury concern status
For DILI severity class in this document: key of the grades not given here.

Molecule | DILI_severity_class (Homo sapiens [1]) | DILI_Concern (Homo sapiens [2])
CCCCC[C@](C)(O)/C=C/[C@@H]1[C@@H](C/C=C\CCCC(=O)O)[C@@H](O)C[C@H]1O.NC(CO)(CO)CO [CARBOPROST TROMETHAMINE] | 0 | No-Dili-Concern
CNC(=O)c1c(I)c(NC(C)=O)c(I)c(C(=O)[O-])c1I.[Na+] [IOTHALAMATE SODIUM] | 0 | No-Dili-Concern
Nc1nc2c(ncn2COCCO)c(=O)[nH]1 [ACYCLOVIR] | 5 | Less-Dili-Concern
N=C(N)NCCC[C@H](N)C(=O)O [ARGININE] | 0 | No-Dili-Concern
COc1cc(Cc2cnc(N)nc2N)cc(OC)c1OC [TRIMETHOPRIM] | 4 | Less-Dili-Concern
CCCCN1C[C@H](O)[C@@H](O)[C@H](O)[C@H]1CO | 0 | No-Dili-Concern
C=CCN1C[C@H](C(=O)N(CCCN(C)C)C(=O)NCC)C[C@@H]2c3cccc4[nH]cc(c34)C[C@H]21 [CABERGOLINE] | 0 | No-Dili-Concern
O=C(CCCN1CCC(O)(c2ccc(Cl)cc2)CC1)c1ccc(F)cc1 [HALOPERIDOL] | 5 | Less-Dili-Concern
O=C1CC2(CCCC2)CC(=O)N1CCCCN1CCN(c2ncccn2)CC1 [BUSPIRONE] | 3 | Ambiguous-Dili-Concern
Cc1cn[nH]c1 [FOMEPIZOLE] | 3 | Ambiguous-Dili-Concern
CC(=O)N[C@H](Cc1ccc2ccccc2c1)C(=O)N[C@H](Cc1ccc(Cl)cc1)C(=O)N[C@H](Cc1cccnc1)C(=O)N[C@@H](CO)C(=O)N[C@@H](Cc1ccc(O)cc1)C(=O)N[C@H](CCCNC(N)=O)C(=O)N[C@@H](CC(C)C)C(=O)N[C@@H](CCCNC(=N)N)C(=O)N1CCC[C@H]1C(=O)N[C@H](C)C(N)=O [CETRORELIX] (Ac-[d2Nal][dPhe(4-Cl)][d3Pal]SY[dCit]LRP[dA]-NH2) | 3 | Ambiguous-Dili-Concern
COc1cc([C@@H]2c3cc4c(cc3[C@@H](O[C@@H]3O[C@@H]5CO[C@@H](C)O[C@H]5[C@H](O)[C@H]3O)[C@H]3COC(=O)[C@H]23)OCO4)cc(OC)c1O [ETOPOSIDE] | 3 | Less-Dili-Concern
CC(=O)[O-].CC(=O)[O-].[Ca+2] [CALCIUM ACETATE] | 0 | No-Dili-Concern
CC(CCc1ccc(O)cc1)NCCc1ccc(O)c(O)c1 (stereo not given) [DOBUTAMINE] | 0 | No-Dili-Concern
O=C(O)c1cc(=O)c2cc(OCC(O)COc3cccc4oc(C(=O)O)cc(=O)c34)ccc2o1 (stereo not given) | 3 | –
COc1ccccc1OCC(O)CN1CCN(CC(=O)Nc2c(C)cccc2C)CC1 (stereo not given) [RANOLAZINE] | 0 | No-Dili-Concern
CN(Cc1cnc2nc(N)nc(N)c2n1)c1ccc(C(=O)N[C@@H](CCC(=O)O)C(=O)O)cc1 [METHOTREXATE] | 3 | Most-Dili-Concern
CNCC[C@H](Oc1cccc2ccccc12)c1cccs1 [DULOXETINE] | 8 | Most-Dili-Concern
CC(=O)OCC[N+](C)(C)C.[Cl-] [ACETYLCHOLINE CHLORIDE] | 0 | No-Dili-Concern
CC1=C(C(=O)O)N2C(=O)[C@@H](NC(=O)[C@H](N)C3=CCC=CC3)[C@H]2SC1 [CEPHRADINE] | 4 | Ambiguous-Dili-Concern

Molecule | DILI_severity_class (Homo sapiens [1]) | DILI_Concern (Homo sapiens [2])
Cc1c(OCC(F)(F)F)ccnc1C[S+]([O-])c1nc2ccccc2[nH]1 (stereo not given) [LANSOPRAZOLE] | 3 | Less-Dili-Concern
COc1ccc2c3c1O[C@H]1[C@@H](O)C=C[C@H]4[C@@H](C2)N(C)CC[C@@]341 [CODEINE] | 0 | No-Dili-Concern
CCC1(C)CC(=O)NC1=O (stereo not given) [ETHOSUXIMIDE] | 3 | Ambiguous-Dili-Concern
Nc1nc2c(c(=O)[nH]1)N(C=O)C(CNc1ccc(C(=O)N[C@@H](CCC(=O)O)C(=O)O)cc1)CN2 (stereo not given in full) [LEUCOVORIN] | 0 | No-Dili-Concern
CCC[C@H](N[C@@H](C)C(=O)N1[C@H](C(=O)O)C[C@@H]2CCCC[C@@H]21)C(=O)OCC [PERINDOPRIL] | 3 | Ambiguous-Dili-Concern
O=C1CN=C(c2ccccc2Cl)c2cc([N+](=O)[O-])ccc2N1 [CLONAZEPAM] | 3 | Less-Dili-Concern
O=C(O)c1cn(C2CC2)c2cc(N3CCNCC3)c(F)cc2c1=O [CIPROFLOXACIN] | 7 | Most-Dili-Concern
CC[C@H](C)[C@@H]1NC(=O)[C@H](Cc2ccc(O)cc2)NC(=O)[C@@H](N)CSSC[C@@H](C(=O)N2CCC[C@H]2C(=O)N[C@@H](CC(C)C)C(=O)NCC(N)=O)NC(=O)[C@H](CC(N)=O)NC(=O)[C@H](CCC(N)=O)NC1=O [OXYTOCIN] | 0 | No-Dili-Concern
O=C(O)[C@@H](S)[C@@H](S)C(=O)O | 2 | Less-Dili-Concern
O=C(c1cc(O)c(O)c(O)c1)c1ccc(O)c(O)c1O [EXIFONE] | 8 | Most-Dili-Concern
O=C1Nc2ccc(Cl)cc2[C@@](C#CC2CC2)(C(F)(F)F)O1 [EFAVIRENZ] | 7 | Most-Dili-Concern
O=C(O)Cc1csc(-c2ccc(Cl)cc2)n1 [FENCLOZIC ACID] | 8 | Most-Dili-Concern
CN(C)CCCN1c2ccccc2CCc2ccc(Cl)cc21 [CLOMIPRAMINE] | 8 | Most-Dili-Concern
Oc1ccc2c3c1O[C@H]1[C@@H](O)CC[C@@]4(O)[C@@H](C2)N(CC2CCC2)CC[C@]314 [NALBUPHINE] | 0 | No-Dili-Concern
CC(=O)Oc1ccc(C2(c3ccc(OC(C)=O)cc3)C(=O)N(C(C)=O)c3ccccc32)cc1 [TRIACETYLDIPHENOLISATIN] | 8 | Most-Dili-Concern
CN1CCC[C@@H]1CCO[C@](C)(c1ccccc1)c1ccc(Cl)cc1 [CLEMASTINE] | 0 | No-Dili-Concern
C[C@]12CC[C@H]3[C@@H](CCC4=CC(=O)CC[C@@]43C)[C@@H]1CC[C@@H]2O [TESTOSTERONE] | 8 | Most-Dili-Concern
CNS(=O)(=O)CCc1ccc2[nH]cc(C3CCN(C)CC3)c2c1 | 4 | Ambiguous-Dili-Concern
CCOC(=O)C1=C(COCCN)NC(C)=C(C(=O)OC)C1c1ccccc1Cl (stereo not given) [AMLODIPINE] | 5 | Less-Dili-Concern
COCCc1ccc(OCC(O)CNC(C)C)cc1 (stereo not given) [METOPROLOL] | 5 | Less-Dili-Concern

Molecule | DILI_severity_class (Homo sapiens [1]) | DILI_Concern (Homo sapiens [2])
C[C@]12CCC(=O)C=C1CC[C@@H]1[C@@H]2[C@@H](O)C[C@@]2(C)[C@H]1CC[C@]2(O)C(=O)CO [HYDROCORTISONE] | 0 | No-Dili-Concern
CC(C)CC(N(C)C)C1(c2ccc(Cl)cc2)CCC1 (stereo not given) [SIBUTRAMINE] | 4 | Less-Dili-Concern
CN1CCC(=C2c3ccccc3C=Cc3ccccc32)CC1 [CYPROHEPTADINE] | 7 | Less-Dili-Concern
Cc1ccc(C)c(OCCCC(C)(C)C(=O)O)c1 [GEMFIBROZIL] | 4 | Most-Dili-Concern
CN(C)CCc1c[nH]c2ccc(C[C@H]3COC(=O)N3)cc12 [ZOLMITRIPTAN] | 3 | Ambiguous-Dili-Concern
C[C@]12CCC(=O)C=C1CC[C@H]1[C@@H]3CC[C@](O)(C(=O)CO)[C@@]3(C)C[C@H](O)[C@@]12F [FLUDROCORTISONE] | 0 | No-Dili-Concern
COC[C@@H](NC(C)=O)C(=O)NCc1ccccc1 [LACOSAMIDE] | 3 | Ambiguous-Dili-Concern
Cc1c(C)c2c(c(C)c1O)CCC(C)(COc1ccc(CC3SC(=O)NC3=O)cc1)O2 (stereo not given) [TROGLITAZONE] | 8 | Most-Dili-Concern
C[C@]12C=CC(=O)C=C1CC[C@@H]1[C@@H]2[C@@H](O)C[C@@]2(C)[C@H]1CC[C@]2(O)C(=O)CO [PREDNISOLONE] | 3 | Less-Dili-Concern
CCCCc1ncc(/C=C(\Cc2cccs2)C(=O)O)n1Cc1ccc(C(=O)O)cc1 [EPROSARTAN] | 3 | Ambiguous-Dili-Concern
N[C@@H](C(=O)N[C@@H]1C(=O)N2C(C(=O)O)=C(Cl)CS[C@H]12)c1ccccc1 [CEFACLOR ANHYDROUS] | 3 | Less-Dili-Concern
C=C(CC)C(=O)c1ccc(OCC(=O)O)c(Cl)c1Cl [ETHACRYNIC ACID] | 5 | Ambiguous-Dili-Concern
BIVALIRUDIN | 0 | No-Dili-Concern
CN1C[C@H](C(=O)N[C@]2(C)O[C@@]3(O)[C@@H]4CCCN4C(=O)[C@H](Cc4ccccc4)N3C2=O)C[C@@H]2c3cccc4[nH]cc(c34)C[C@H]21 [DIHYDROERGOTAMINE] | 0 | No-Dili-Concern
CCCN1C[C@H](CSC)C[C@@H]2c3cccc4[nH]cc(c34)C[C@H]21 [PERGOLIDE] | 3 | Ambiguous-Dili-Concern
Cc1onc(-c2ccccc2)c1C(=O)N[C@@H]1C(=O)N2[C@@H]1SC(C)(C)[C@@H]2C(=O)O [OXACILLIN] | 3 | Less-Dili-Concern
CC(=O)Nc1ccc(O)cc1 [ACETAMINOPHEN] | – | Most-Dili-Concern
COc1ccc(CCN(C)CCCC(C#N)(c2ccc(OC)c(OC)c2)C(C)C)cc1OC (stereo not given) | – | Less-Dili-Concern
Clc1ccccc1CN1CCc2sccc2C1 [TICLOPIDINE] | – | Most-Dili-Concern
CN(C)CCCN1c2ccccc2CCc2ccccc21 [IMIPRAMINE] | – | Less-Dili-Concern
